From patent US6362369B1, “Phthalic acid diamide derivatives fluorine-containing aniline compounds as starting material, agricultural and horticultural insecticides, and a method for application of the insecticides” (Nihon Nohyaku Co., Ltd., priority 1997, dated 2002)

Legend:
Format in all cases: in vivo
[1] = tested on: diamondback moth (Plutella xylostella); experiment: Insecticidal effect on diamondback moth (Test Example 1); conditions: for Insecticidal effect, Test Example 1 / Insecticidal effect (Test Example 1), judged from mortality: diamondback moth; for Insecticidal effect (Test Example 1), judged from mortality: judged by the criterion of Test Example 1; for Insecticidal effect on diamondback moth (Test Example 1), judged grade: mortality judged according to the criterion shown in Test Example 1
In short: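 Chinese cabbage seedlings carrying eggs laid by released adult moths were immersed in treatment, air-dried and held at 25° C. Hatched insects were counted six days after immersion, and mortality was calculated and scored against a fixed criterion. Three replicate groups of 10 insects were used.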

[2] = tested on: common cutworm (Spodoptera Litura); experiment: Insecticidal effect on common cutworm (Test Example 2); conditions: 500 ppm, 25° C.; for Insecticidal effect, Test Example 2: cabbage leaf immersed; for Insecticidal effect, Test Example 2 / Insecticidal effect on common cutworm (Test Example 2), judged grade: eight days after inoculation; for Insecticidal effect (Test Example 2), judged from mortality / Insecticidal effect on common cutworm (Test Example 2), judged grade: cabbage leaf dip; for Insecticidal effect (Test Example 2), judged from mortality: 8 days after inoculation; for Insecticidal effect on common cutworm (Test Example 2), judged grade: second-instar larvae
In short: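 After the treated material air-dries, it goes into a dish, second-instar larvae are added, and the dish is closed. Incubation runs at 25° C. On day eight, dead and living larvae are scored, and the calculated mortality is rated on an effect scale.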

[3] = tested on: rice leafroller (Cnaphalocrocis medinalis); experiment: Insecticidal effect on rice leafroller (Test Example 3); conditions: 500 ppm, 25° C., humidity 70%; for Insecticidal effect, Test Example 3: rice lamina immersed; for Insecticidal effect, Test Example 3 / Insecticidal effect on rice leafroller (Test Example 3), judged grade: four days after inoculation; for Insecticidal effect (Test Example 3), judged from mortality / Insecticidal effect on rice leafroller (Test Example 3), judged grade: rice lamina dip; for Insecticidal effect (Test Example 3), judged from mortality: 4 days after inoculation; for Insecticidal effect on rice leafroller (Test Example 3), judged grade: third-instar larvae
In short: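 Groups of 10 third-instar larvae, in triplicate, are placed on air-dried lamina resting on wet filter paper. Incubation runs four days at 25° C with 70% humidity before survivors and dead are tallied.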

[4] = judged by the mortality criterion of Test Example 1
[5] = second-instar larvae of common cutworm
[6] = third-instar larvae of rice leafroller
[7] = mortality judged by criterion of Test Example 1
[8] = common cutworm second-instar larvae
[9] = rice leafroller third-instar larvae

CC(C)NC(=O)c1c(Cl)cccc1C(=O)Nc1ccc(F)cc1F [compound 113]
Insecticidal effect, Test Example 1 [1, 4]: A (100) | Insecticidal effect, Test Example 2 [2, 5]: B (99-90) | Insecticidal effect, Test Example 3 [3, 6]: A (100)

Cc1cc(OC(F)(F)C(F)F)ccc1NC(=O)c1cccc(C(F)(F)F)c1C(=O)NC(C)C [compound 1206]
Insecticidal effect, Test Example 1 [1, 7]: A (100) | Insecticidal effect, Test Example 2 [2, 8]: A (100) | Insecticidal effect, Test Example 3 [3, 9]: A (100)

CC(C)NC(=O)c1c(Br)cccc1C(=O)Nc1ccc(OC(F)(F)F)cc1Br [compound 287]
Insecticidal effect, Test Example 1 [1, 4]: A (100) | Insecticidal effect, Test Example 2 [2, 5]: A (100) | Insecticidal effect, Test Example 3 [3, 6]: A (100)

Cc1cc(C(F)(F)C(F)(F)F)ccc1NC(=O)c1cccc(C(F)(F)F)c1C(=O)NC(C)C [compound 1801]
Insecticidal effect (Test Example 1), judged from mortality [1]: A (100) | Insecticidal effect (Test Example 2), judged from mortality [2, 5]: A (100) | Insecticidal effect (Test Example 3), judged from mortality [3, 6]: A (100)

CC(C)(C)NC(=O)c1c(F)cccc1C(=O)Nc1ccc(C(F)(F)C(F)(F)F)cc1Cl [compound 1508]
Insecticidal effect (Test Example 1), judged from mortality [1]: A (100) | Insecticidal effect (Test Example 2), judged from mortality [2, 5]: C (89-80) | Insecticidal effect (Test Example 3), judged from mortality [3, 6]: A (100)

Cc1cc(OC(F)(F)C(F)Cl)ccc1NC(=O)c1cccc([N+](=O)[O-])c1C(=O)NC(C)C (stereo not drawn) [compound 714]
Insecticidal effect on diamondback moth (Test Example 1), judged grade [1]: A (100) | Insecticidal effect on common cutworm (Test Example 2), judged grade [2]: A (100) | Insecticidal effect on rice leafroller (Test Example 3), judged grade [3]: A (100)

CC(C)NC(=O)c1c(C(=O)Nc2ccc(OC(F)(F)F)cc2)cccc1[N+](=O)[O-] [compound 618]
Insecticidal effect on diamondback moth (Test Example 1), judged grade [1]: A (100) | Insecticidal effect on common cutworm (Test Example 2), judged grade [2]: A (100) | Insecticidal effect on rice leafroller (Test Example 3), judged grade [3]: A (100)

CC(C)NC(=O)c1c(C(=O)Nc2ccc([S+]([O-])C(F)(F)F)cc2)cccc1[N+](=O)[O-] (stereo not drawn) [compound 1000]
Insecticidal effect, Test Example 1 [1, 7]: A (100) | Insecticidal effect, Test Example 2 [2, 8]: D (79-50) | Insecticidal effect, Test Example 3 [3, 9]: A (100)

CCN(CC)C(=O)c1c(Cl)cccc1C(=O)Nc1ccc(C(F)(F)C(F)(F)F)cc1F [compound 1541]
Insecticidal effect (Test Example 1), judged from mortality [1]: A (100) | Insecticidal effect (Test Example 2), judged from mortality [2, 5]: A (100) | Insecticidal effect (Test Example 3), judged from mortality [3, 6]: A (100)

Cc1cc(C(F)(F)C(F)(F)F)ccc1NC(=O)c1cccc(I)c1C(=O)N1CCCCCC1 [compound 1117]
Insecticidal effect, Test Example 1 [1, 7]: A (100) | Insecticidal effect, Test Example 2 [2, 8]: A (100) | Insecticidal effect, Test Example 3 [3, 9]: A (100)

CCCN(CC)C(=O)c1c(F)cccc1C(=O)Nc1ccc(C(F)(F)C(F)(F)F)cc1C [compound 1581]
Insecticidal effect (Test Example 1), judged from mortality [1]: A (100) | Insecticidal effect (Test Example 2), judged from mortality [2, 5]: A (100) | Insecticidal effect (Test Example 3), judged from mortality [3, 6]: A (100)

Cc1cc(OC(F)(F)C(Cl)(Cl)Cl)ccc1NC(=O)c1cccc(F)c1C(=O)NC(C)C [compound 501]
Insecticidal effect on diamondback moth (Test Example 1), judged grade [1]: A (100) | Insecticidal effect on common cutworm (Test Example 2), judged grade [2]: A (100) | Insecticidal effect on rice leafroller (Test Example 3), judged grade [3]: A (100)

Cc1cc(OC(F)(F)C(F)Cl)ccc1NC(=O)c1c(F)cccc1C(=O)NC(C)C (stereo not drawn) [compound 567]
Insecticidal effect on diamondback moth (Test Example 1), judged grade [1]: A (100) | Insecticidal effect on common cutworm (Test Example 2), judged grade [2]: D (79-50) | Insecticidal effect on rice leafroller (Test Example 3), judged grade [3]: D (79-50)

Cc1cc(C(F)(F)C(F)(F)F)ccc1NC(=O)c1cccc(I)c1C(=O)NCC(F)(F)F [compound 1040]
Insecticidal effect, Test Example 1 [1, 7]: A (100) | Insecticidal effect, Test Example 2 [2, 8]: A (100) | Insecticidal effect, Test Example 3 [3, 9]: A (100)

Cc1ccc(Cl)cc1NC(=O)c1cccc([N+](=O)[O-])c1C(=O)NC(C)C [compound 665]
Insecticidal effect on diamondback moth (Test Example 1), judged grade [1]: A (100) | Insecticidal effect on common cutworm (Test Example 2), judged grade [2]: A (100) | Insecticidal effect on rice leafroller (Test Example 3), judged grade [3]: B (99-90)

CCCNC(=O)c1c(I)cccc1C(=O)Nc1ccc(C(F)(C(F)(F)F)C(F)(F)F)cc1C [compound 1075]
Insecticidal effect, Test Example 1 [1, 7]: A (100) | Insecticidal effect, Test Example 2 [2, 8]: A (100) | Insecticidal effect, Test Example 3 [3, 9]: A (100)

CC(C)NC(=O)c1c(C(=O)Nc2ccc(SC(F)F)cc2)cccc1[N+](=O)[O-] [compound 625]
Insecticidal effect on diamondback moth (Test Example 1), judged grade [1]: A (100) | Insecticidal effect on common cutworm (Test Example 2), judged grade [2]: D (79-50) | Insecticidal effect on rice leafroller (Test Example 3), judged grade [3]: D (79-50)

COc1cc(NC(=O)c2cccc([N+](=O)[O-])c2C(=O)NC(C)C)cc(C(F)(F)F)c1 [compound 691]
Insecticidal effect on diamondback moth (Test Example 1), judged grade [1]: A (100) | Insecticidal effect on common cutworm (Test Example 2), judged grade [2]: D (79-50) | Insecticidal effect on rice leafroller (Test Example 3), judged grade [3]: C (89-80)

Cc1cc(C(F)(C(F)(F)F)C(F)(F)F)ccc1NC(=O)c1cccc(I)c1C(=O)NC(C)c1ccco1 (stereo not drawn) [compound 1799]
Insecticidal effect (Test Example 1), judged from mortality [1]: A (100) | Insecticidal effect (Test Example 2), judged from mortality [2, 5]: A (100) | Insecticidal effect (Test Example 3), judged from mortality [3, 6]: A (100)
